Laboratory results reported in patent US20090214669A1, “Combination anticancer therapy and pharmaceutical compositions therefore” (priority 2004, published 2009).
“Also recorded” adds a separate entry of the source. Read-outs that look alike come from different tables or passages of the source.

Assays:
PROb cells [1] = assay: PROb i.p. rat colon cancer model, 5-FU combined with OM-174: carcinomatosis classes, ascites, survival; type: in vivo; conditions: day 61; for Number of rats in carcinomatosis class 0: Class 0: no visible nodule, 5-FU 30 mg/kg i.p. days 7 and 14, OM-174 1 mg/kg i.v. from day 21, 10 injections; for Number of rats in carcinomatosis class 1: Class 1: some countable nodules with a diameter from 0.1 to 0.3 cm; for Number of rats in carcinomatosis class 2: Class 2: many uncountable nodules with a diameter from 0.1 to 0.3 cm; for Number of rats in carcinomatosis class 3: Class 3: some nodules with a diameter of 1 cm invade the peritoneal cavity; for Number of rats in carcinomatosis class 4: Class 4: the cavity is completely invaded by tumor masses of several cm; for Ascites: measured by double weights of the rats
Procedure: On day 0 (D0), 106 PROb cells were injected i.p. to each rat. 5-FU was administered i.p. at the dose of 30 mg/kg on days 7 and 14. OM-174 was injected at the dose of 1 mg/kg i.v. from day 21 three times a week for a total of 10 injections.
All rats (controls and treated) were sacrificed by CO2 on day 61. The efficacy of the treatment was determined by read-outs such as survival (FIG. 5) and measure of the classes of cancer given depending on the number and the size of the nodules, and also by ascites measurements. Carcinomatoses were evaluated blindly. As it is impossible to measure the volume of a carcinomatosis, they were classified according to the number and diameter of the nodules: • Class 0: no visible nodule • Class 1: some countable nodules with a diameter from 0.1 to 0.3 cm • Class 2: many uncountable nodules with a diameter from 0.1 to 0.3 cm • Class 3: some nodules with a diameter of 1 cm invade the peritoneal cavity • Class 4: the cavity is completely invaded by tumor masses of several cm.
The ascite volume was measured by double weights of the rats.

PROb cells [2] = assay: BDIX/PROb peritoneal carcinomatosis, cisplatin combined with OM-174, survival; type: in vivo, BDIX rats; conditions: cisplatin 3 mg/kg i.v. day 21; OM-174 1 mg/kg i.v., 5 injections every 5th day from day 28 or 35
Procedure: Colon cancer PROb cells were originally obtained from a tumor of a BDIX rat induced by 1,2-dimethylhydrazine.
The BDIX strain of rats was established in 1937 by H. Druckrey. Nowadays these rats come from Iffa-Credo (L'Asbresle, France).
BDIX rats, 4 months±1 month at the beginning of the experiment, 7 animals/group, received i.p. cultured syngenic PROb cells (i.p) on day 0. Cisplatin (3 mg/kg) was injected i.v. on day 21, and OM-174 treatment (1 mg/kg, 5 injections i.v. in the penile vein every 5th day) started either on days 28 or 35. Survival was followed until day 72 in the example presented here.
In this example, cisplatin (3 mg/kg i.v) is given on day 21. A further immunostimulating treatment with OM-174 is started only on day 28 or 35 (1 mg/kg, 5 injections i.v. every 5th day).

[3] = test system: PROb subcutaneous colon tumors; type: in vivo, BDIX rats
[4] = test system: spleen cells expressing CD4, CD8, and NK1.1; assay: Flow cytometric analysis of spleen cell subsets; type: in vivo, C57BL/6 mice; conditions: for NK (%): NK1.1 positive cells vs total spleen cells; for NK (%) / CD4^+ (%) / CD8^+ (%): mean ± S.E.M; for CD4^+ (%) / CD8^+ (%): positive cells vs total spleen cells
Procedure: Splenocytes from individual mice were analysed by flow cytometry. The following monoclonal antibodies were used for double fluorescence analysis of spleen cell subsets: fluorescein (FITC)-conjugated anti-mouse NK1.1 PE (PharMingen, San Diego, Calif.), PE-conjugated anti-mouse CD4 (PharMingen), FITC-conjugated anti-mouse CD8 (PharMingen). Approximately 1×10^6 spleen cells were resuspended in […] of CM and staining was performed at 4° C. for 30 minutes. Cells were then washed twice in PBS containing 0.02% sodium azide and flow cytometric analysis was performed using a FACscan flow cytometer (Becton Dickinson).
Fluorescence data were collected using a 488 nm excitation wavelength from a 15 mW air-cooled argon-ion laser. […] A minimum of 5,000 events were collected on each sample and acquired in list mode by a Hewlett Packard 9000 computer. To exclude dead cells, debris, non lymphoid cells, and cell aggregates, data collection was gated on live spleen lymphocytes by forward and side angle scatter. Data are represented as the percentage of positive cells over the total number of cells counted.

YAC-1 cells = assay: NK activity of spleen cells, 4-hour 51Cr-release assay; conditions: for NK activity (in words): B16 melanoma-injected mice; for NK % cytotoxicity: E/T ratio 25:1, mean ± S.E.
Excerpt: (§2) Mice were sacrificed by cervical dislocation on day 14 after tumour inoculation.
(§3) In vitro-passaged YAC-1 cells (a Moloney-virus induced mouse T cells lymphoma of A/SN origin), and in vivo-passaged B16 melanoma cells, were used as target cells in a chromium-release assay. B16 melanoma cells were obtained from tumour-bearing mice, seeded in cell-culture flasks (Falcon, Becton Dickinson and Co., Plymouth, England) and used within the first week of culture in CM. B16 and YAC-1 cell lines were obtained from the laboratory collection, and were originally obtained from the American Tissue Culture Collection (ATCC).
(§4) The cytotoxic activity of the effector cells collected from individual mice was measured by a standard 4-hour ^51Cr-release assay. Briefly, target cells were harvested from the cultures, washed twice, resuspended at 5×10^6 cells in 0.9 ml of CM and labelled with 100 μCi (^51Cr) sodium chromate (New England Nuclear, Boston, Mass.) for 1 hour at 37° C. in a 5% CO2 incubator. […] The effector cells suspension was added to quadruplicate wells to give three E/T ratios (i.e. 100:1, 50:1, 25:1) in a final volume of 200 μl per well. The plates were then incubated for 4 hours at 37° C. in a 5% CO2 incubator, 100 μl of supernatants were collected from each well, and the radioactivity was measured using a gamma counter. Total mean cytotoxicity±S.E.M. were calculated from quadruplicate cpm values from individual spleens.
It has been therefore measured the cytotoxic activity of splenocytes against NK-sensitive (YAC-1) tumour cells.

EMT-6 cells [5] = assay: Direct radiosensitisation of EMT-6 cells, 8-day colony formation assay; type: cell-based, mouse
Procedure: (§1) Murine mammary adenocarcinoma EMT-6 cells were cultured in RPMI medium+10% bovine calf serum in plastic flasks. EMT-6 monolayer cultures grown to early confluence were exposed to OM-174 for 16 hours in both conditions (21% and 1% oxygen). After treatment with OM-174, nitrite determination using the classical Griess method was performed. Values were normalized for 200'000 cells per well.
Cells were then collected by trypsinization and the radioresponse was estimated as described previously (Van der Berge et al., 2001) Briefly, micropellets (0.5×10^6 cells) were produced in conical tubes by centrifugation at 300 g for 5 min. Metabolic oxygen depletion in micropellets was induced by incubation at 37° C. for 3 minutes prior to radiation. Micropellets were irradiated with a linear accelerator at a rate of 2 Gy per min and the survival fraction (SF) after 5, 10, 15, and 20 Gy was measured by a 8-day colony formation assay.

[6] = Single dose i.v. infusion study of OM-174 in cancer patients (tolerability, cytokines); type: in vivo
Procedure: Doses higher than 1 mg OM-174/m^2 by i.v. infusion were reached without unacceptable toxicity according to non-haematological grade III and haematological grade IV NCI Common Toxicity Criteria.
Secretion occurred in all steps, and appeared more “patient”- than “dose”-dependent.
The results of this single dose study led to the selection of three doses (0.6, 0.8, and 1.0 mg OM-174/m^2) for repeated i.v. injections (5 to 15 injections), used in a phase Ib study.

ProB cells [7] = conditions: cited from earlier work
B16 melanoma = B16 melanoma model: tumour growth and survival time; type: in vivo, C57BL/6 mice; conditions: CY 200 mg/Kg i.p. day 7; OM-174 1 mg/kg i.p. days 8, 13, 18, 23, 28; vs untreated controls
Procedure: Four to six weeks-old male C57BL/6 mice were purchased from Charles River (Calco, Corno, Italy). B 16 melanoma tumour cells were serially passaged subcutaneously (s.c.) in syngenic mice. On day 0, mice were injected s.c. in the right flank with 2×10^5 B16 melanoma cells. Tumour growth was measured daily in each mouse, using calipers, and mean tumour diameter per day was calculated. At day 7 after tumour injection, all mice with s.c. tumours of about 2-3 mm diameter were divided into different experimental groups, i.e. phosphate buffered saline (PBS)-injected control 3, CY, OM-174 or CY with OM-174.
Cyclophosphamide (Sigma, St. Louis, Mo.) was dissolved at 20 mg/ml in PBS immediately before use, and 0.2 ml per mouse were injected intraperitoneally. Each treated animal received a single dose of 200 mg/Kg CY on day 7.
Kaplan-Meier method was used to estimate the survivor functions and Log-rank test was performed for testing the homogeneity of survival functions across the four groups (control, CY, OM-174, CY+OM-174).
Tumor growth was analyzed by T-test for unpaired data.

B16 melanoma cells = assay: Cytotoxic (CTL) activity of spleen cells against autologous tumour cells, 51Cr-release assay; conditions: for CTL % cytotoxicity: E/T ratio 25:1
Excerpt: as §2, §3, §4
It has been tested from spleen cells from normal and tumour-bearing mice for specific cytotoxic activity against autologous tumour cells using in-vivo passaged B16 melanoma cells as target.

[8] = Pharmacokinetic data of OM-174 in man; conditions: human, in vivo, median and range; for Vd: read-out: Vss
EMT-6 cells [9] = assay: Indirect radiosensitisation via OM-174-induced conditioned medium; type: cell-based, mouse; conditions: 3 μg/ml versus 0.3 μg/ml; conditioned medium from Whistar rats
EMT-6 cells [10] = assay: NO production (nitrite, Griess method) by EMT-6 cells exposed to OM-174; type: cell-based, mouse; conditions: 16 hours
Procedure: as §1

[11] = B16 tumour-bearing mice, day 14
[12] = B16 tumour-bearing mice, day 14, CY 200 mg/Kg i.p. day 7, OM-174 1 mg/kg i.p. days 8 and 13, mean ± S.E.

## O=c1[nH]cc(F)c(=O)[nH]1 [5-FU, 5-Fluorouracil, reference compound]
PROb cells [1]
  Number of rats in carcinomatosis class 0: 2
  Number of rats in carcinomatosis class 1: 0
  Number of rats in carcinomatosis class 2: 0
  Number of rats in carcinomatosis class 3: 0
  Number of rats in carcinomatosis class 4: 8
  Carcinomatosis classes versus Control group (Mann-Whitney test): No significant difference
  Ascites: 44 mL

## N.N.[Cl][Pt][Cl] [Cisplatin, cisplatin, reference compound]
PROb cells [2]
  Antitumour activity / survival (in words, FIG. 4): only partial efficacy

## CCCCCCCCCCCC(=O)O[C@H](CCCCCCCCCCC)CC(=O)N[C@@H]1C(O)[C@H](OP(=O)(O)O)C(CO)O[C@H]1OCC1O[C@H](OP(=O)(O)O)C(NC(=O)C[C@H](O)CCCCCCCCCCC)C(O)[C@@H]1O (stereo partly shown) [OM-174]
PROb cells [2]
  Antitumour activity / survival (in words, FIG. 4): anticancer effect is lost
[3]; CY 25 mg/kg i.p. day 36, i.t. immunostimulant from day 43 (OM-174 200 μg x12, CpG 100 μg x12, BCG days 43 and 50)
  Number of cured animals/total number of animals: 1/6
[3]; agent alone, comparatively to untreated animals
  Antitumoral effect of single treatment on large, established PROb tumors (in words, FIG. 3): no antitumoral effect
[3]; i.p. CY day 36 combined with i.t. immunostimulant from day 43
  Effect of i.t. immunostimulant on the antitumor activity of CY (in words): strongly enhanced
[3]; i.p. CY day 36 followed by i.t. OM-174 from day 43
  Complete and lasting tumor regression (animals): 4/6
[4]; [11]
  NK (%): 7.5 ± 0.5%
  CD4^+ (%): 27.0 ± 2.0%
  CD8^+ (%): 9.3 ± 1.8%
[4]; normal and tumour-bearing mice
  Percentages of CD4^+, CD8^+ and NK1.1 positive spleen cells (in words): increased the percentages
[4]; normal mice
  NK (%): 11.6 ± 2.1%
  CD4^+ (%): 34.0 ± 2.5%
  CD8^+ (%): 12.6 ± 1.5%
PROb cells [1]
  Number of rats in carcinomatosis class 0: 2
  Number of rats in carcinomatosis class 1: 3
  Number of rats in carcinomatosis class 2: 2
  Number of rats in carcinomatosis class 3: 2
  Number of rats in carcinomatosis class 4: 1
  Carcinomatosis classes versus Control group (Mann-Whitney test): significant difference
  Ascites: 1 mL
YAC-1 cells; day 14
  NK activity (in words): dramatic increase
YAC-1 cells; Mus musculus, YAC-1, ip, read-out: NK % cytotoxicity
  cytotoxicity at 1 mg/kg: 6.3 ± 1.7%
YAC-1 cells; normal mice, vs untreated controls
  NK cell activity (in words): dramatic increase
YAC-1 cells; normal mice, five mice
  NK % cytotoxicity: 10.39 ± 1.0 %
EMT-6 cells [5]; 21% versus 1% oxygen
  Direct radiosensibilizing effect (in words, FIG. 7): directly radiosensibilizing agent for cancer cells only in hypoxic conditions
EMT-6 cells [5]; hypoxic conditions, at either 3 or 30 mg/ml (FIG. 7)
  Lowering of the radiation dose necessary to kill 90% of the cells versus absence of OM-174: 1.67
[6]
  Tolerability: well tolerated
[6]; i.v. infusion, non-haematological grade III and haematological grade IV NCI Common Toxicity Criteria
  Doses reached without unacceptable toxicity: higher than 1 mg OM-174/m^2
[6]; single dose study
  Cytokine secretion (TNF-α, IL-1b, IL-1ra, IL-6, IL-8, sTNF-RI, sTNF-RII, IL-10, IL-2, IL-2sRa, IFN-γ): secretion profile consistent with that of lipid A derivatives
ProB cells [7]; treatment started up to 14 days after tumour induction, WO 95/14026
  Therapeutic activity per se (in words): strong therapeutic activity
ProB cells [7]; treatment starts 14 days after the injection of the cancer cells, peritoneal carcinomatoses
  Complete remissions: 90%
B16 melanoma
  B16 tumour growth (in words, FIG. 1): partially inhibits tumour progression; also recorded: inhibited slightly but significantly
  Survival time (MST) of mice (in words, FIG. 2): slightly extends the survival time; also recorded: increased slightly but significantly
B16 melanoma cells; [12]
  CTL % cytotoxicity: 5.6 ± 0.9%
B16 melanoma cells; normal mice
  CTL % cytotoxicity: <1%
B16 melanoma cells; tumour-bearing mice
  Cytotoxic activity against autologous tumour cells (in words): marked stimulation of CTL activity
  Increase of CTL activity with respect to tumour controls: two-fold increase
[8]; intravenous, Cancer patients
  clearance: 1.7 mL/min
  half-life: 20 h
  Vd: 2.9 L
[8]; Healthy volunteers
  clearance: 2.82 mL/min
  half-life: 23 h
  Vd: 5.1 L
EMT-6 cells [9]
  Indirect radiosensibilizing effect via conditioned medium (in words, FIG. 8): clearly more radiosensibilizing
EMT-6 cells [10]; hypoxic (1% oxygen) condition
  NO production (in words, FIG. 6): increased production of NO
EMT-6 cells [10]; normal oxygen levels (21% oxygen)
  NO production (in words, FIG. 6): low amounts of NO

## O=P1(N(CCCl)CCCl)NCCCO1 (stereo not shown) [CY, cyclophosphamide, reference compound]
[3]; rat, in vivo
  Antitumoral effect of single treatment on large, established PROb tumors (in words, FIG. 3): transient regression; also recorded: unable to cure animals
  Number of cured animals/total number of animals: 0/6
[4]; [11]
  NK (%): 4 ± 0.5%
  CD4^+ (%): 21.7 ± 1.8%
  CD8^+ (%): 6.4 ± 1.4%
YAC-1 cells; day 14
  NK activity (in words): decreased NK activity
YAC-1 cells; B16 tumour-bearing mice, day 14, CY 200 mg/Kg i.p. day 7, OM-174 1 mg/kg i.p. days 8 and 13
  NK % cytotoxicity: 2.3 ± 0.4%
B16 melanoma
  B16 tumour growth (in words, FIG. 1): inhibited slightly but significantly
  Survival time (MST) of mice (in words, FIG. 2): increased slightly but significantly
B16 melanoma cells; [12]
  CTL % cytotoxicity: 2.63 ± 0.2%
B16 melanoma cells; tumour-bearing mice
  Cytotoxic activity against autologous tumour cells (in words): not to be increased
